Source: US9814709B2, “Bruton's tyrosine kinase inhibitor” (HEFEI INSTITUTES OF PHYSICAL SCIENCE, CHINESE ACADEMY OF …, priority 2014, dated 2017)

Assays:
Assay in all cases: Cancer cell growth, Cell Titer-Glo
Format in all cases: cell-based
[1] = test system: AML cell line MOLM13; conditions: Homo sapiens, MOLM-13; MOLM13, 72 hrs; read-out: Half inhibitory concentration IC50
Description: (§1) We further assessed the selectivity of Compound 1 to inhibit the proliferation of cancer cells, by testing the effect of Btk inhibitor on the growth of cancer cells. In the example, we used B-lymphoma cell Ramos, cervical cancer cells HeLa, prostate cancer cells DU145, RV-1 and C4-2, colon cancer cells HCT116, blood cancer cells K562, B-cell lymphoma cells U2932, diffuse large B-cell lymphoma cells OCI-LY10, diffuse histiocytic lymphoma cells SU-DHL-2, diffuse large B-cell lymphoma cells TMD8, human non-small cell lung cancer cells H1975 (expressing EGFR L858R/T790M double mutant gene), human lung adenocarcinoma cells A549 (expressing wild-type EGFR gene), human non-small cell lung cancer cells H460 (expressing wild-type EGFR gene), mantel cell lymphoma (MCL) cells Z-138, EB virus infected human peripheral lymphocyte cells JVM-2, MCL cells REC-1, leukemia cells AML-3, acute promyelocytic leukemia cell line NB-4(Lu+), MDS-RAEB (myelodysplastic syndrome-excessive blasts) cell line SKM-1 human leukemia cell Nomo-1, human B-cell leukemia cell line NALM6, human leukocyte leukemia cells HEL, human T-cell lymphoma cells PF-382, acute myelocytic leukemia (AML) cell line MOLM14, AML cell line MOLM13, human Burkitt's lymphoma cells Namalwa, mouse pro-B cells BaF3, all of where were purchased from ATCC. Also used were mouse TEL-EGFR-BaF3 (stably expressing TEL-EGFR activated kinase), mouse TEL-EGFR/T790-BaF3 cells (stably expressing TEL-EGFR-T790M activated mutant kinase), mouse TEL-EGFR/L858R-BaF3 cells (stably expressing TEL-EGFR-L858R activated mutant kinase), mouse TEL-EGFR/T790/L858R-BaF3 (stably expressing TEL-EGFR-T790M/L858R activated mutant kinase), mouse TEL-BMX-BaF3 cells (stably expressing TEL-BMX activated kinase), mouse TEL-JAK1-BaF3 cells (stably expressing TEL-JAK1 activated kinase), mouse TEL-JAK2-BaF3 cells (stably expressing TEL-JAK2 activated kinase), mouse TEL-JAK3-BaF3 cells (stably expressing TEL-JAK3 activated kinase), where were all established by our laboratory via the following method: the kinase domain sequences of human EGFR, BMX, JAK1, JAK2, JAK3 were amplified respectively by PCR, and these kinase were inserted into the MSCV-Puro vectors with N-terminal TEL segment (Clontech); if there was a mutation, the mutation of the corresponding site was conducted by Site-Directed Mutagenesis kit (Stratagene); the resultants were stably transfected into mouse BaF3 cells by the means of retrovirus, and the IL-3 growth factors were removed, and eventually the EGFR, BMX, JAK1, JAK2, JAK3-transferred protein dependent cell lines were obtained.
(§2) In the example, different concentrations (0.000508 μM, 0.00152 μM, 0.00457 μM, 0.0137 μM, 0.0411 μM, 0.123 μM, 0.370 μM, 1.11 μM, 3.33 μM, 10 μM) of Compound 1 and Compound 19 were added into above cells, and were incubated for 72 hrs. The number of viable cells was determined by quantitating ATP in viable cells using Cell Titer-Glo® (Promega, U.S.) chemiluminescence cell viability assay kit.

[2] = test system: B-lymphoma cell Ramos; conditions: Homo sapiens, 72 hrs, read-out: Half inhibitory concentration IC50
Description: as §1, §2

[3] = test system: EB virus infected human peripheral lymphocyte cells JVM-2; conditions: JVM-2, 72 hrs, read-out: Half inhibitory concentration IC50
Description: as §1, §2

[4] = test system: MCL cells REC-1; conditions: Homo sapiens, Rec1; REC-1, 72 hrs; read-out: Half inhibitory concentration IC50
Description: as §1, §2

[5] = test system: acute myelocytic leukemia (AML) cell line MOLM14; conditions: Homo sapiens, MOLM-14; MOLM14, 72 hrs; read-out: Half inhibitory concentration IC50
Description: as §1, §2

[6] = test system: acute promyelocytic leukemia cell line NB-4(Lu+); conditions: 72 hrs, read-out: Half inhibitory concentration IC50
Description: as §1, §2

[7] = test system: cervical cancer cells HeLa; conditions: Homo sapiens, 72 hrs, read-out: Half inhibitory concentration IC50
Description: as §1, §2

[8] = test system: colon cancer cells HCT116; conditions: Homo sapiens, HCT-116; HCT116, 72 hrs; read-out: Half inhibitory concentration IC50
Description: as §1, §2

[9] = test system: diffuse histiocytic lymphoma cells SU-DHL-2; conditions: Homo sapiens; SU-DHL-2, 72 hrs; read-out: Half inhibitory concentration IC50
Description: as §1, §2

[10] = test system: diffuse large B-cell lymphoma cells OCI-LY10; conditions: Homo sapiens; OCI-LY10, 72 hrs; read-out: Half inhibitory concentration IC50
Description: as §1, §2

[11] = test system: diffuse large B-cell lymphoma cells TMD8; conditions: Homo sapiens; TMD8, 72 hrs; read-out: Half inhibitory concentration IC50
Description: as §1, §2

[12] = test system: human T-cell lymphoma cells PF-382; conditions: PF-382, 72 hrs, read-out: Half inhibitory concentration IC50
Description: as §1, §2

[13] = test system: human leukocyte leukemia cells HEL; conditions: 72 hrs, read-out: Half inhibitory concentration IC50
Description: as §1, §2

[14] = test system: human lung adenocarcinoma cells A549 (expressing wild-type EGFR gene); conditions: A549, 72 hrs, read-out: Half inhibitory concentration IC50
Description: as §1, §2

[15] = test system: mantel cell lymphoma (MCL) cells Z-138; conditions: Homo sapiens; Z-138, 72 hrs; read-out: Half inhibitory concentration IC50
Description: as §1, §2

[16] = test system: prostate cancer cells C4-2; conditions: C4-2, 72 hrs; read-out: Half inhibitory concentration IC50
Description: as §1, §2

[17] = test system: prostate cancer cells DU145; conditions: Homo sapiens, DU-145; DU145, 72 hrs; read-out: Half inhibitory concentration IC50
Description: as §1, §2

| IC50 [1] | IC50 [2] | IC50 [3] | IC50 [4] | IC50 [5] | IC50 [6] | IC50 [7] | IC50 [8] | IC50 [9] | IC50 [10] | IC50 [11] | IC50 [12] | IC50 [13] | IC50 [14] | IC50 [15] | IC50 [16] | IC50 [17] | Compound |
| --- | --- | --- | --- | --- | --- | --- | --- | --- | --- | --- | --- | --- | --- | --- | --- | --- | --- |
| > 10 µM | > 10 µM | > 10 µM | > 10 µM | > 10 µM | > 10 µM | > 10 µM | > 10 µM | > 10 µM | > 10 µM | > 10 µM | > 10 µM | > 10 µM | > 10 µM | > 10 µM | > 10 µM | > 10 µM | CCC(=O)Nc1cc(-n2c(=O)ccc3cnc4ccc(-n5cccn5)cc4c32)ccc1C [Compound 19, N-(2-methyl-5-(2-oxo-9-(1H-pyrazol-1-yl)benzo[H][1,6]naphthyridin-1(2H)-yl)phenyl) propionamide] |
| 0.59 µM | > 10 µM | 3.4 µM | 1.6 µM | 1.5 µM | 3.7 µM | > 10 µM | > 10 µM | 5.02 µM | > 10 µM | 3.43 µM | 3.49 µM | 1.8 µM | 3.76 µM | 8.5 µM | > 10 µM | > 10 µM | C=CC(=O)Nc1cc(-n2c(=O)ccc3cnc4ccc(-n5cccn5)cc4c32)ccc1C [Compound 1, N-(2-methyl-5-(2-oxo-9-(1H-pyrazol-1-yl)benzo[H][1,6]naphthyridin-1(2H)-yl)phenyl)acrylamide] |
